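Dose response: 5 concentrations. Exposure: 48 h. Format: 96-well plates. Endpoint: linear interpolation; highest concentration if not reached. Here, GI50 denotes the concentration required for 50% inhibition of growth. TGI marks complete inhibition of growth.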
Legend:
Assay in all cases: growth of human tumour cells (NCI), 48 h
[1] = system: T-47D breast
[2] = system: HS 578T breast
[3] = system: SK-MEL-5 melanoma
[4] = system: MDA-MB-435
[5] = system: MOLT-4 leukemia
[6] = system: A549 NSCLC
[7] = system: NCI-H460 lung
[8] = system: OVCAR-8 ovarian
[9] = system: ACHN renal
[10] = system: NCI-H226 lung

SMILES: Clc1ccc(C(c2ccc(Cl)cc2)N2CCNCC2)cc1
- TGI [1]: 5.25 µM
- TGI [2]: 7.89 µM
- TGI [3]: 3.64 µM
- TGI [4]: 3.63 µM
- TGI [5]: 5 µM
- TGI [6]: 8.4 µM
- TGI [7]: 4.65 µM
- TGI [8]: 3.28 µM
- TGI [9]: 5.74 µM

SMILES: CN(C(=O)C12C3(C(=O)C(C)(C)C)C4C5(C#N)C3C1(C(=O)C(C)(C)C)C5C42C(=O)C(C)(C)C)C(C)(C)C (stereo not drawn)
- TGI [3]: > 50 µM
- TGI [5]: > 50 µM
- TGI [6]: > 50 µM
- TGI [7]: > 50 µM
- TGI [10]: > 50 µM
- TGI [8]: > 50 µM
- TGI [9]: > 50 µM

SMILES: COC1=C2C[C@H](O)C(C)C[C@@]2(OC)OC1=O (stereo partly drawn)
- TGI [3]: > 100 µM
- TGI [5]: > 100 µM
- TGI [6]: > 100 µM
- TGI [7]: > 100 µM

SMILES: O=c1nc(NC(c2ccccc2)(c2ccccc2)c2ccccc2)ccn1CCO
- TGI [5]: > 100 µM
- TGI [6]: > 100 µM
- TGI [7]: > 100 µM
- TGI [10]: > 100 µM
- TGI [8]: > 100 µM
- TGI [9]: > 100 µM

SMILES: CCCCCCCC(=O)OCC1OC(n2cc(F)c(=O)[nH]c2=O)C(NC(=O)OCc2ccccc2)C(O)C1O (stereo not drawn)
- TGI [3]: 23.7 µM
- TGI [5]: > 100 µM
- TGI [6]: > 100 µM
- TGI [7]: > 100 µM
- TGI [8]: > 100 µM
- TGI [9]: > 100 µM

SMILES: O=C1[C@H]2ON(c3ccccc3)C(c3ccccc3F)[C@H]2C(=O)N1c1ccc(Cc2ccc(N3C(=O)[C@@H]4ON(c5ccccc5)C(c5ccccc5F)[C@@H]4C3=O)cc2)cc1 (stereo partly drawn)
- TGI [3]: > 100 µM
- TGI [5]: > 100 µM
- TGI [6]: > 100 µM
- TGI [7]: > 100 µM
- TGI [10]: > 100 µM
- TGI [9]: > 100 µM

SMILES: CCOc1ccccc1N1C(=O)C(=O)C(c2nc3ccccc3o2)/C(=N\N)C1=O (stereo not drawn)
- TGI [3]: > 100 µM
- TGI [6]: > 100 µM
- TGI [10]: > 100 µM
- TGI [8]: > 100 µM
- TGI [9]: > 100 µM

SMILES: COC(=O)c1ccc(NC(=O)c2cc(OC)c(OC)c(OC)c2)cc1
- TGI [5]: > 100 µM
- TGI [6]: > 100 µM
- TGI [7]: > 100 µM
- TGI [10]: > 85.4 µM
- TGI [8]: > 100 µM
- TGI [9]: > 100 µM

SMILES: CCCCOC(=O)c1ccc(NC(=O)CCl)cc1
- GI50 [1]: 1.38 µM
- TGI [1]: 4.01 µM
- GI50 [2]: 9.16 µM
- TGI [2]: 57.3 µM
- GI50 [3]: 1.55 µM
- TGI [3]: 3.04 µM
- GI50 [4]: 3.5 µM
- TGI [4]: 14.3 µM
- GI50 [5]: 1.82 µM
- TGI [5]: 6.21 µM
- GI50 [6]: 10.2 µM
- TGI [6]: 22.8 µM
- GI50 [7]: 3.09 µM
- TGI [7]: 10.7 µM
- GI50 [10]: 4.82 µM
- TGI [10]: 23.1 µM
- GI50 [8]: 2.29 µM
- TGI [8]: 4.73 µM

SMILES: O=C1C(Cl)=C(Nc2cccc(O)c2)C(=O)N1Cc1ccc(Cl)cc1
- GI50 [1]: 10.7 µM
- TGI [1]: 54 µM
- GI50 [2]: 8.51 µM
- TGI [2]: > 100 µM
- GI50 [3]: 5.69 µM
- TGI [3]: 21.1 µM
- GI50 [4]: 1.22 µM
- TGI [4]: 10.1 µM
- GI50 [5]: 1.35 µM
- TGI [5]: > 100 µM
- GI50 [6]: 5.22 µM
- TGI [6]: 37.4 µM
- GI50 [7]: 2.87 µM
- TGI [7]: 14 µM
- GI50 [10]: 1.21 µM
- TGI [10]: 4.91 µM
- GI50 [8]: 3.65 µM
- TGI [8]: 44.4 µM

SMILES: CCOC(=O)[C@H]1CSC[C@@H](C(=O)OC)N1
- TGI [3]: > 100 µM
- TGI [5]: > 100 µM
- TGI [6]: > 100 µM
- TGI [7]: > 100 µM
- TGI [8]: > 100 µM
- TGI [9]: > 100 µM

SMILES: C/C(CC(=O)Nc1ccc(Cl)cc1)=N\NC(=O)C[n+]1ccccc1
- TGI [3]: > 100 µM
- TGI [5]: > 100 µM
- TGI [6]: > 100 µM
- TGI [7]: > 100 µM
- TGI [10]: > 100 µM
- TGI [8]: > 100 µM
- TGI [9]: > 100 µM
